Test results: the NIST ThermoML archive (doi:10.1021/acs.jced.6b00350)
Several values for one entry are separate records, joined by “and”; a condition that tells them apart may be missing. Equal entries are not always repeated.

Conditions: Liquid, Hot wire method

FC(F)CC(F)(F)F [1,1,1,3,3-pentafluoropropane]
Conditions | thermal conductivity
222.11 K, 10047 kPa | 0.1156 W/m/K
222.11 K, 15756 kPa | 0.117 W/m/K
222.12 K, 15761 kPa | 0.1169 W/m/K
222.12 K, 21261 kPa | 0.1184 W/m/K
222.12 K, 21267 kPa | 0.1186 W/m/K
222.13 K, 27470 kPa | 0.1201 W/m/K
222.13 K, 27478 kPa | 0.1202 W/m/K
222.13 K, 33686 kPa | 0.1212 W/m/K
222.16 K, 33712 kPa | 0.1215 W/m/K
222.37 K, 39767 kPa | 0.1235 W/m/K
222.37 K, 47190 kPa | 0.1251 W/m/K
222.38 K, 39761 kPa | 0.1235 W/m/K
222.38 K, 47197 kPa | 0.125 W/m/K
222.38 K, 54316 kPa | 0.1267 W/m/K
222.38 K, 54318 kPa | 0.1267 W/m/K
222.38 K, 61389 kPa | 0.1284 W/m/K
222.38 K, 67942 kPa | 0.1297 W/m/K
222.39 K, 61385 kPa | 0.1283 W/m/K
222.39 K, 67938 kPa | 0.1298 W/m/K
222.5 K, 255 kPa | 0.1121 W/m/K
222.5 K, 4863 kPa | 0.1134 W/m/K
222.5 K, 4873 kPa | 0.1134 W/m/K
222.51 K, 9999 kPa | 0.1152 W/m/K
222.51 K, 10021 kPa | 0.1152 W/m/K
222.51 K, 15761 kPa | 0.1166 W/m/K
222.51 K, 15763 kPa | 0.1166 W/m/K
222.51 K, 21262 kPa | 0.1182 W/m/K
222.51 K, 21266 kPa | 0.1185 W/m/K
222.51 K, 27487 kPa | 0.12 W/m/K
222.52 K, 245 kPa | 0.112 W/m/K
222.52 K, 27479 kPa | 0.1198 W/m/K
222.52 K, 33833 kPa | 0.1215 W/m/K
222.53 K, 33800 kPa | 0.1213 W/m/K
222.77 K, 67930 kPa | 0.1298 W/m/K
222.78 K, 39758 kPa | 0.1234 W/m/K
222.78 K, 39765 kPa | 0.1236 W/m/K
222.78 K, 47189 kPa | 0.1249 W/m/K
222.78 K, 47193 kPa | 0.125 W/m/K
222.78 K, 54318 kPa | 0.1265 W/m/K
222.78 K, 54319 kPa | 0.1266 W/m/K
222.78 K, 61395 kPa | 0.1281 W/m/K
222.78 K, 61401 kPa | 0.1282 W/m/K
222.78 K, 67928 kPa | 0.1296 W/m/K
222.94 K, 4870 kPa | 0.113 W/m/K
222.94 K, 10017 kPa | 0.1147 W/m/K
222.94 K, 10023 kPa | 0.1147 W/m/K
222.94 K, 15762 kPa | 0.1162 W/m/K
222.94 K, 15767 kPa | 0.1163 W/m/K
222.94 K, 21269 kPa | 0.1181 W/m/K
222.94 K, 21277 kPa | 0.118 W/m/K
222.94 K, 27478 kPa | 0.1199 W/m/K
222.94 K, 27487 kPa | 0.1197 W/m/K
222.94 K, 33837 kPa | 0.1213 W/m/K
222.94 K, 33847 kPa | 0.1213 W/m/K
222.95 K, 242 kPa | 0.1115 W/m/K
222.95 K, 262 kPa | 0.1116 W/m/K
222.95 K, 4862 kPa | 0.113 W/m/K
223.19 K, 67923 kPa | 0.1295 W/m/K
223.2 K, 61398 kPa | 0.128 W/m/K
223.2 K, 67921 kPa | 0.1295 W/m/K
223.21 K, 54306 kPa | 0.1263 W/m/K
223.21 K, 61402 kPa | 0.128 W/m/K
223.22 K, 39767 kPa | 0.1231 W/m/K
223.22 K, 47186 kPa | 0.1248 W/m/K
223.22 K, 47187 kPa | 0.1248 W/m/K
223.22 K, 54313 kPa | 0.1265 W/m/K
223.23 K, 39773 kPa | 0.1231 W/m/K
223.38 K, 33868 kPa | 0.1211 W/m/K
223.39 K, 33861 kPa | 0.1211 W/m/K
223.4 K, 21286 kPa | 0.1177 W/m/K
223.4 K, 27486 kPa | 0.1196 W/m/K
223.4 K, 27487 kPa | 0.1195 W/m/K
223.41 K, 15762 kPa | 0.1159 W/m/K
223.41 K, 15769 kPa | 0.1159 W/m/K
223.41 K, 21280 kPa | 0.1178 W/m/K
223.42 K, 4862 kPa | 0.1127 W/m/K
223.42 K, 4869 kPa | 0.1127 W/m/K
223.42 K, 10011 kPa | 0.1143 W/m/K
223.42 K, 10015 kPa | 0.1145 W/m/K
223.43 K, 243 kPa | 0.1111 W/m/K
223.43 K, 251 kPa | 0.1111 W/m/K
223.65 K, 67907 kPa | 0.1291 W/m/K
223.65 K, 67916 kPa | 0.1294 W/m/K
223.66 K, 61399 kPa | 0.1279 W/m/K
223.67 K, 61396 kPa | 0.1278 W/m/K
223.68 K, 54302 kPa | 0.1262 W/m/K
223.68 K, 54305 kPa | 0.1261 W/m/K
223.69 K, 47183 kPa | 0.1247 W/m/K
223.69 K, 47193 kPa | 0.1247 W/m/K
223.7 K, 39777 kPa | 0.123 W/m/K
223.71 K, 39772 kPa | 0.1229 W/m/K
223.87 K, 33885 kPa | 0.1209 W/m/K
223.88 K, 33873 kPa | 0.1209 W/m/K
241.3 K, 9886 kPa | 0.1092 W/m/K
241.3 K, 15301 kPa | 0.1111 W/m/K
241.31 K, 9877 kPa | 0.1094 W/m/K
241.32 K, 21013 kPa | 0.1123 W/m/K
241.32 K, 21021 kPa | 0.1121 W/m/K
241.33 K, 33388 kPa | 0.115 W/m/K
241.34 K, 33390 kPa | 0.1153 W/m/K
241.35 K, 26974 kPa | 0.1134 W/m/K
241.35 K, 26975 kPa | 0.1134 W/m/K
241.35 K, 46711 kPa | 0.1187 W/m/K
241.35 K, 46714 kPa | 0.1192 W/m/K
241.36 K, 39784 kPa | 0.1173 W/m/K
241.37 K, 297 kPa | 0.1065 W/m/K and 0.1069 W/m/K
241.37 K, 4974 kPa | 0.1077 W/m/K
241.37 K, 39780 kPa | 0.1174 W/m/K
241.38 K, 4982 kPa | 0.1074 W/m/K
241.38 K, 53704 kPa | 0.1209 W/m/K
241.38 K, 53707 kPa | 0.1206 W/m/K
241.41 K, 61279 kPa | 0.1222 W/m/K
241.43 K, 68711 kPa | 0.1241 W/m/K
241.43 K, 68724 kPa | 0.1238 W/m/K
241.68 K, 15290 kPa | 0.1103 W/m/K
241.69 K, 9889 kPa | 0.1088 W/m/K
241.69 K, 9892 kPa | 0.1093 W/m/K
241.69 K, 15293 kPa | 0.1107 W/m/K
241.69 K, 21027 kPa | 0.1119 W/m/K
241.69 K, 21032 kPa | 0.1126 W/m/K
241.7 K, 33378 kPa | 0.1158 W/m/K
241.7 K, 33381 kPa | 0.1154 W/m/K
241.7 K, 46707 kPa | 0.1184 W/m/K
241.71 K, 26968 kPa | 0.1137 W/m/K
241.71 K, 26981 kPa | 0.1139 W/m/K
241.71 K, 46714 kPa | 0.1189 W/m/K
241.72 K, 39777 kPa | 0.117 W/m/K
241.73 K, 39791 kPa | 0.1169 W/m/K
241.73 K, 53687 kPa | 0.1208 W/m/K
241.73 K, 53704 kPa | 0.1206 W/m/K
241.75 K, 61249 kPa | 0.1223 W/m/K
241.75 K, 61272 kPa | 0.1223 W/m/K
241.76 K, 296 kPa | 0.1058 W/m/K
241.76 K, 303 kPa | 0.1061 W/m/K
241.76 K, 4987 kPa | 0.108 W/m/K
241.77 K, 4997 kPa | 0.1079 W/m/K
241.77 K, 68669 kPa | 0.1236 W/m/K
241.78 K, 68692 kPa | 0.1241 W/m/K
